Experimental data from patent US20060281817A1, “Treatment for neurodegenerative diseases” (priority 2005, published 2006).

Tests used:
[1] = test system: MN9D cells over-expressing human alpha synuclein (wild type); assay: Cell death (propidium iodide, flow cytometry), cells over-expressing alpha synuclein; type: cell-based
Text: (§1) Parkinson's disease (PD) is characterized by the presence of aggregates (Lewy bodies) composed of alpha-synculein and other cellular proteins within neurons. (Paleologou; Gandhi) These aggregates are believed to be a critical factor in the death of the neuron and in the etiology of PD (Paleologou; Schrag). Mutated alpha-synuclein, as observed in those individuals with familial PD caused by synculein mutations, causes increased aggregate formation (Paleologou). A cell culture model is used to study alpha-synuclein aggregate formation in vitro. This model was created by using molecular biological techniques to transfect a dopaminergic cell line with DNA constructs that, when expressed, generate large amounts of normal alpha-synuclein (over-expressed) or mutated human alpha synuclein within the cells essentially as described by Perez et al (Perez). […] These cells were then treated with Difluoromethylornithine (DFMO) to test the ability of this agent to reduce cell death.
(§2) Compared to control cells, treatment with DFMO (100-500 uM) increased survival in cells over-expressing alpha synuclein and in cells expressing mutated alpha synuclein by up to 54%.

[2] = test system: MN9D cells expressing human A53T alpha-synuclein mutant; assay: Cell death (propidium iodide, flow cytometry), cells expressing mutated alpha synuclein; type: cell-based; conditions: Mutated alpha synuclein construct
Text: as §1, §2

[3] = test system: Huntington's disease (HD) mice; assay: Rotorod motor function test in HD mice; type: in vivo; conditions: treated HD mice vs untreated HD mice, day 93 and day 105 after birth
Procedure: This example was carried out as schematically illustrated in FIG. 1.

[4] = test system: MN9D cells, vector only (control cells); assay: Cell death (propidium iodide, flow cytometry), cells with empty vector; type: cell-based; conditions: Vector only construct
Text: as §1, §2

[5] = represents % cells rescued by DFMO, 100 um

## NCCC[C@](N)(C(=O)O)C(F)F [DFMO, Alpha-difluoromethylornithine]
[1]; Alpha-synuclein construct
  % rescue compared to vector control for DFMO treated cells: 54%
[1]; Alpha-synuclein construct, DFMO-treated
  % Dead Cells (DFMO): 29.8%
[1]; Alpha-synuclein construct, represents % cells rescued by DFMO, 100 um
  % Dead Cells minus % DFMO-treated cells (100 um): 15%
[1]; DFMO 100-500 uM, cells over-expressing alpha synuclein and cells expressing mutated alpha synuclein
  Increased survival compared to control cells: up to 54%
[2]
  % rescue compared to vector control for DFMO treated cells: 40%
[2]; DFMO-treated
  % Dead Cells (DFMO): 38.1%
[2]; [5]
  Reduction in % dead cells with DFMO (100 uM): 13.5%
[3]
  Rotorod motor function: better
[4]; DFMO-treated
  % Dead Cells (DFMO): 30.2%
[4]; [5]
  Reduction in % dead cells with DFMO: 9.6%
